Results published in patent USRE48461E1, “Modulation of androgen receptor expression” (Ionis Pharmaceuticals, Inc., priority 2012, dated 2021).

Columns and labels:
Type in all cases: cell-based, human
[1] = test system: LMR20 cells; assay: Proliferation of MDV3100-resistant LMR20 cells (MTT; with R1881 or DHT); settings: 5 days
Summary of the method: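 Cells were held in phenol red-free medium with charcoal-stripped FBS and given antisense oligonucleotides plus 1 nM R1881 or 10 nM DHT from day 1. Proliferation was read by MTT after 5 days of treatment and reported as percent inhibition against non-treated cells.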

[2] = test system: 22RV1 cells; assay: 22RV1 cell proliferation, ASO in combination with MDV3100 (Example 22); settings: for Proliferation (% untreated control) in 22RV1 without MDV-3100: RNAiMAX, 3 days
Protocol: 22RV1 cells were plated at 2,000 cells per well in 5% CSS medium for 48 hours. […] ISIS 549148 was included as a negative control. […] After a treatment period of 3 days, the proliferative capacity of the cancer cells was measured with CellTiter 96® AQueous One Solution Cell Proliferation kit (Promega), following the manufacturer's instructions. Results are presented in Tables 58-62 as percent inhibition of proliferation, relative to non-treated cells.

[3] = test system: PSA mRNA; assay: PSA expression in C4-2 cells; settings: 48 hrs; for Percent inhibition of PSA expression: C4-2 cells, CSS + DHT medium
Protocol: Cells were plated at 1,000 cells per well. […] After an incubation period of 48 hrs, RNA levels of AR, PSA and TMPRSS2 were measured.
Cells were plated at 2,000 cells per well and cultured in CSS media with 1 nM DHT. […] After an incubation period of 48 hrs, RNA levels of AR, PSA and TMPRSS2 were measured.

[4] = test system: C4-2B cells; assay: C4-2B cell proliferation (complete or CSS+DHT medium; Example 30); settings: 5 days; for Proliferation (% untreated control): C4-2B cells
Protocol: After a treatment period of 5 days in complete medium or CSS+1 nM DHT medium, the proliferative capacity of the cancer cells was measured with using CellTiter 96® AQueous One or CellTiter-Glo® Solution Cell Proliferation kit (Promega), following the manufacturer's instructions.

[5] = test system: AR V7 variant mRNA; assay: AR V7 variant RNA in VCaP cells; settings: RNAiMax, 48 hrs
Protocol: Cells were plated at 10,000 cells per well. […] ISIS 549148 was included as a negative control. After an incubation period of 48 hrs, RNA levels of full length AR, the V7 variant, PSA and TMPRSS2 were measured.
A separate set of cells was treated with MDV-3100 at 0.04 μM, 0.2 μM, 1.0 μM, or 5.0 μM. After an incubation period of 48 hrs, RNA levels of full length AR, the V7 variant, PSA and TMPRSS2 were measured. The data is presented in Tables 108 expressed as percent expression of gene levels compared to the untreated control.
Cells were plated at 15,000 cells per well and cultured in CSS media for 16 hours. […] ISIS 549148 was included as a negative control. After 4 hrs, 1 nM DHT was added. […] After an incubation period of 48 hrs, RNA levels of AR, PSA and TMPRSS2 were measured. […]

[6] = test system: VCaP cells; assay: VCaP apoptosis (Caspase-Glo 3/7); settings: complete medium, 72 hours; for Apoptosis (% untreated control): VCaP cells
Protocol: After a treatment period of 72 hours in complete medium, apoptosis of the cancer cells was measured with Caspase-Glo 3/7 assay (Promega). Results are presented in Tables 117 and 118 as percent apoptosis of the cells, relative to non-treated cells.

[7] = test system: cleaved PARP; assay: Cleaved PARP western blot in VCaP cells

Which “Percent inhibition of LMR20 cell proliferation” value ([1]; CSS + DHT, ASO 0.04 μM) does the source give for “TGATTTAATGGTTGCA [ISIS 569236] (cEt/MOE gapmer chemistry, further chemistry not given here) [targets intron 1]” here?
Its value is 0%.

And the “Percent inhibition of LMR20 cell proliferation” value ([1]; CSS + DHT, ASO 0.20 μM)?
Its value is 10%.

What about the “Percent inhibition of LMR20 cell proliferation” value ([1]; CSS + DHT, ASO 1.0 μM) of the same sequence?
The value was 32%.

What about the “Percent inhibition of LMR20 cell proliferation” value ([1]; CSS + DHT, ASO 5.0 μM) of the same sequence?
The value was 57%.

And the “Percent inhibition of LMR20 cell proliferation” value ([1]; CSS + R1881, ASO 0.04 μM)?
The value was 0%.

What about the “Percent inhibition of LMR20 cell proliferation” value ([1]; CSS + R1881, ASO 0.20 μM) of the same sequence?
Its value is 2%.

And the “Percent inhibition of LMR20 cell proliferation” value ([1]; CSS + R1881, ASO 1.0 μM)?
Its value is 34%.

What about the “Percent inhibition of LMR20 cell proliferation” value ([1]; CSS + R1881, ASO 5.0 μM) of the same sequence?
Its value is 61%.

What about the “Percent inhibition of LMR20 cell proliferation” value ([1]; CSS, ASO 0.04 μM) of the same sequence?
The value was 0%.

And the “Percent inhibition of LMR20 cell proliferation” value ([1]; CSS, ASO 0.20 μM)?
Its value is 10%.

And the “Percent inhibition of LMR20 cell proliferation” value ([1]; CSS, ASO 1.0 μM)?
The value was 0%.

And the “Percent inhibition of LMR20 cell proliferation” value ([1]; CSS, ASO 5.0 μM)?
The value was 12%.

What about the LMR20 cell proliferation ([1]; in the presence of R1881 or DHT, 0.04-5.0 μM) of the same sequence?
Its LMR20 cell proliferation is “significantly inhibited MDV3100-resistant prostate cancer cell proliferation in a dose dependent manner more extensively than ISIS 554221”.

What about the “synergy with MDV3100” value ([2]; 22RV1 cells) of the same sequence?
Its value is “synergistic with MDV3100”.

And the “inhibited cell proliferation, ASO alone” value ([2]; 22RV1 cells, ASO alone at 1.0 μM)?
Its value is 17%.

What about the “cell proliferation inhibited, combination” value ([2]; 22RV1 cells, ISIS 569236 (1.0 μM as printed) in combination with 1.0 μM MDV3100) of the same sequence?
The value was 30%.

What about the “Proliferation (% untreated control) in 22RV1 cells with 0.04 μM MDV-3100” value ([2]; ASO dose 0.4 nM + 0.04 μM MDV-3100) of the same sequence?
The value was 83 % untreated control.

What about the “Proliferation (% untreated control) in 22RV1 cells with 0.2 μM MDV-3100” value ([2]; ASO dose 0.4 nM + 0.2 μM MDV-3100) of the same sequence?
Its value is 93 % untreated control.

And the “Proliferation (% untreated control) in 22RV1 cells with 1.0 μM MDV-3100” value ([2]; ASO dose 0.4 nM + 1.0 μM MDV-3100)?
Its value is 79 % untreated control.

And the “Proliferation (% untreated control) in 22RV1 cells with 5.0 μM MDV-3100” value ([2]; ASO dose 0.4 nM + 5.0 μM MDV-3100)?
The value was 82 % untreated control.

And the “Proliferation (% untreated control) in 22RV1 without MDV-3100” value ([2]; ASO dose 0.4 nM)?
Its value is 97 % untreated control.

And the “Proliferation (% untreated control) in 22RV1 cells with 0.04 μM MDV-3100” value ([2]; ASO dose 1.34 nM + 0.04 μM MDV-3100)?
The value was 70 % untreated control.

What about the “Proliferation (% untreated control) in 22RV1 cells with 0.2 μM MDV-3100” value ([2]; ASO dose 1.34 nM + 0.2 μM MDV-3100) of the same sequence?
Its value is 77 % untreated control.

And the “Proliferation (% untreated control) in 22RV1 cells with 1.0 μM MDV-3100” value ([2]; ASO dose 1.34 nM + 1.0 μM MDV-3100)?
Its value is 70 % untreated control.

What about the “Proliferation (% untreated control) in 22RV1 cells with 5.0 μM MDV-3100” value ([2]; ASO dose 1.34 nM + 5.0 μM MDV-3100) of the same sequence?
The value was 72 % untreated control.

What about the “Proliferation (% untreated control) in 22RV1 without MDV-3100” value ([2]; ASO dose 1.34 nM) of the same sequence?
Its value is 83 % untreated control.

What about the “Proliferation (% untreated control) in 22RV1 cells with 0.04 μM MDV-3100” value ([2]; ASO dose 4.0 nM + 0.04 μM MDV-3100) of the same sequence?
Its value is 61 % untreated control.

What about the “Proliferation (% untreated control) in 22RV1 cells with 0.2 μM MDV-3100” value ([2]; ASO dose 4.0 nM + 0.2 μM MDV-3100) of the same sequence?
The value was 60 % untreated control.

And the “Proliferation (% untreated control) in 22RV1 cells with 1.0 μM MDV-3100” value ([2]; ASO dose 4.0 nM + 1.0 μM MDV-3100)?
The value was 52 % untreated control.

What about the “Proliferation (% untreated control) in 22RV1 cells with 5.0 μM MDV-3100” value ([2]; ASO dose 4.0 nM + 5.0 μM MDV-3100) of the same sequence?
The value was 52 % untreated control.

What about the “Proliferation (% untreated control) in 22RV1 without MDV-3100” value ([2]; ASO dose 4.0 nM) of the same sequence?
Its value is 69 % untreated control.

And the “Proliferation (% untreated control) in 22RV1 cells with 0.04 μM MDV-3100” value ([2]; ASO dose 13.4 nM + 0.04 μM MDV-3100)?
Its value is 24 % untreated control.

And the “Proliferation (% untreated control) in 22RV1 cells with 0.2 μM MDV-3100” value ([2]; ASO dose 13.4 nM + 0.2 μM MDV-3100)?
The value was 20 % untreated control.

What about the “Proliferation (% untreated control) in 22RV1 cells with 1.0 μM MDV-3100” value ([2]; ASO dose 13.4 nM + 1.0 μM MDV-3100) of the same sequence?
Its value is 18 % untreated control.

And the “Proliferation (% untreated control) in 22RV1 cells with 5.0 μM MDV-3100” value ([2]; ASO dose 13.4 nM + 5.0 μM MDV-3100)?
The value was 24 % untreated control.

And the “Proliferation (% untreated control) in 22RV1 without MDV-3100” value ([2]; ASO dose 13.4 nM)?
The value was 37 % untreated control.

What about the “Percent inhibition of PSA expression” value ([3]; 0.04 μM) of the same sequence?
The value was 0%.

What about the “Percent inhibition of PSA expression” value ([3]; 0.2 μM) of the same sequence?
The value was 4%.

And the “Percent inhibition of PSA expression” value ([3]; 1 μM)?
The value was 57%.

What about the “Percent inhibition of PSA expression” value ([3]; 5.0 μM) of the same sequence?
Its value is 64%.

And the “Percent inhibition of PSA expression in C4-2 cells cultured in complete medium” value (“Percent inhibition … in complete medium” for short) ([3]; 0.04 μM)?
The value was 35%.

What about the “Percent inhibition … in complete medium” value ([3]; 0.2 μM) of the same sequence?
The value was 62%.

What about the “Percent inhibition … in complete medium” value ([3]; 1 μM) of the same sequence?
Its value is 83%.

What about the “Percent inhibition … in complete medium” value ([3]; 5.0 μM) of the same sequence?
Its value is 88%.

What about the “Proliferation (% untreated control)” value ([4]; CSS + DHT medium, 0.04 μM) of the same sequence?
Its value is 109 % untreated control.

What about the “Proliferation (% untreated control)” value ([4]; CSS + DHT medium, 0.2 μM) of the same sequence?
The value was 109 % untreated control.

And the “Proliferation (% untreated control)” value ([4]; CSS + DHT medium, 1 μM)?
Its value is 67 % untreated control.

And the “Proliferation (% untreated control)” value ([4]; CSS + DHT medium, 5.0 μM)?
Its value is 39 % untreated control.

And the “Proliferation (% untreated control)” value ([4]; complete medium, 0.04 μM)?
The value was 98 % untreated control.

And the “Proliferation (% untreated control)” value ([4]; complete medium, 0.2 μM)?
The value was 64 % untreated control.

And the “Proliferation (% untreated control)” value ([4]; complete medium, 1 μM)?
The value was 55 % untreated control.

What about the “Proliferation (% untreated control)” value ([4]; complete medium, 5.0 μM) of the same sequence?
Its value is 48 % untreated control.

What about the “proliferation of C4-2B cells” value ([4]; complete medium or CSS+1 nM DHT) of the same sequence?
Its value is “reduced proliferation of the cells in a dose dependent compared to the control”.

And the “Percent inhibition of AR V7 variant” value ([5]; CSS + DHT medium, 1.34 nM)?
The value was 37%.

What about the “Percent inhibition of AR V7 variant” value ([5]; CSS + DHT medium, 4.0 nM) of the same sequence?
The value was 33%.

What about the “Percent inhibition of AR V7 variant” value ([5]; CSS + DHT medium, 13.4 nM) of the same sequence?
Its value is 48%.

And the “Percent inhibition of AR V7 variant” value ([5]; CSS + DHT medium, 40 nM)?
Its value is 39%.

And the “Percent inhibition of AR V7 variant” value ([5]; complete medium, 1.34 nM)?
The value was 0%.

And the “Percent inhibition of AR V7 variant” value ([5]; complete medium, 4.0 nM)?
Its value is 40%.

What about the “Percent inhibition of AR V7 variant” value ([5]; complete medium, 13.4 nM) of the same sequence?
The value was 53%.

And the “Percent inhibition of AR V7 variant” value ([5]; complete medium, 40 nM)?
The value was 80%.

What about the “Apoptosis (% untreated control)” value ([6]; 1.34 nM) of the same sequence?
The value was 176 % untreated control.

And the “Apoptosis (% untreated control)” value ([6]; 4.0 nM)?
The value was 293 % untreated control.

What about the “Apoptosis (% untreated control)” value ([6]; 13.4 nM) of the same sequence?
Its value is 402 % untreated control.

And the “Apoptosis (% untreated control)” value ([6]; 40 nM)?
Its value is 581 % untreated control.

And the “apoptosis of VCaP cells” value [6]?
Its value is “increased apoptosis of the cells in a dose dependent compared to the control”.

What about the “cleaved PARP levels (western blot)” value [7] of the same sequence?
The value was “increased in a dose-dependent manner”.
